Assay results published in patent US5691348A, “Pyridyl imidazole derivatives and processes for the preparation thereof” (Daewoo Electronics Co., Ltd., priority 1994, dated 1997).

What was measured:
[1] = test system: renal hypertensive rat; assay: Blood pressure lowering effect in renal hypertension; assay type: in vivo, Sprague-Dawley rat; conditions: Amount 3 mg; intravenous or oral (not specified)
Source text: To induce renal hypertension, left renal artery of 4 week-old male Sprague-Dawley rat (from The Korea Research Institute of Chemical Technology) was ligated. The rat was anesthetized with ether and the surgical region on the left abdomen of the rat was shaved, disinfected, and then incised about 1 cm vertically. The renal artery near abdominal aorta was isolated carefully from surrounding tissues and veins, and then ligated completely with a suture (4/0 sterile surgical silk). The muscular strata and skin of the surgical area were sutured with a suture (4/0 sterile surgical silk). The surgical region was disinfected to prevent infection and thereafter, 200 to 250 mg/kg/day of cephazolin sodium was injected intramuscularly for 2 days. 6 to 8 days after the ligation, rats showing systolic pressure of more than 180 mmHg were selected for renal hypertension test. The blood pressure was determined by a tail-cuff method from the tail under unanesthetized condition (Gerold, M. et al., Arzneimittel-Forsch., 18, 1285(1968)).
Each of the compounds to be tested was administered intravenously or orally into the renal hypertensive rat. The blood pressure of the rat was determined by direct method (Chiu, A. T. et al., J. Pharmacol. Exp. Ther., 250, 867(1989)) using a catheter. The rat was anesthetized with ketamine hydrochloride (125 mg/kg, i.p.) and a catheter was filled with saline and inserted into a carotid artery and […]. The surgical area was sutured with a metal clip. The rat was relaxed at least 3 hours and the catheter in the carotid artery was adapted to an isotec pressure transducer to determine the blood pressure and heart rate with a physiograph (Linearcorder WR3310). After the blood pressure was stabilized, the test compound was administered intravenously or orally. For intravenous administration, the administered volume and washing volume were 1.0 ml/kg and 0.2 ml, respectively. The blood pressure and heart rate were measured in regular intervals up to 24 hours after the administration of the test compound and compared with those measured after the administration of the control compound Losartan.
The test compound was dissolved in 0.05N KOH for intravenous administration and suspended in Tween 80 for oral administration.

[2] = test system: unanesthetized dogs; assay: Blood pressure variation with time in unanesthetized dogs; assay type: in vivo, dog; conditions: 1.0 mg, oral
Protocol: (§1) A number of dog was fed freely in a feeding room and those weighing 7 to 12 kg in good health were selected regardless of their gender.
(§2) The test dog was anesthetized with 30 mg/kg of pentobarbital sodium by intravenous injection and the left femoral artery and femoral vein were separated carefully. Silicone catheter, specially prepared and filled with saline treated with heparin (1,000 IU/ml), was cannulated into the blood vessels. After the surgery, the dog was constrained to measure the blood pressure continuously with Gould 2000 physiograph adapted to a Grass P23XL pressure transducer; and the heart rate was monitored with ECG/Biotacho amplifier. The dog was tested at least 2 days after the surgery.
(§3) 10 mg/kg of furosemide was injected intramuscularly 18 hours (in case of intravenous injection, 2 hours) before the beginning of the test (administration of the test compound) to improve the activity of renin in blood plasma. After the injection of furosemide, neither food nor water was provided. […] The blood pressure and heart rate were measured up to 8 hours after the administration of each test compound.

[3] = test system: furosemide-administered dogs; assay: Duration of action in furosemide-administered dogs; assay type: in vivo, dog; conditions: 0.3 mg oral
Protocol: as §1, §2, §3
The compound of Example 1 and the Merck compound were administered orally to the furosemide-administrated dogs as in test 3(i), and blood pressure lowering effect was measured with time.

## CCCCc1nc2cc(-c3cccc[n+]3[O-])c(CO)nc2n1Cc1ccc(-c2ccccc2-c2nn[nH]n2)cc1 [Example 1, 2-Butyl-5-hydroxymethyl-6-(1-oxy-pyridin-2-yl)-3-[2'-(1H-tetrazol-5-yl)-biphenyl-4-ylmethyl]-3H-imidazo[4,5-b]pyridine]
[1]
  Maximum Blood Pressure Lowering Effect: -60%
[2]; 0.5 hr
  Maximum Blood Pressure Lowering Effect: -17.5%
[2]; 1 hr
  Maximum Blood Pressure Lowering Effect: -21.4%
[2]; 2 hr
  Maximum Blood Pressure Lowering Effect: -23.6%
[2]; 4 hr
  Maximum Blood Pressure Lowering Effect: -24.8%
[2]; 6 hr
  Maximum Blood Pressure Lowering Effect: -21.7%
[2]; 8 hr
  Maximum Blood Pressure Lowering Effect: -13.2%
[3]; 0 min
  Maximum Blood Pressure Lowering Effect: 0.0%
[3]; 10 min
  Maximum Blood Pressure Lowering Effect: 2.2%
[3]; 20 min
  Maximum Blood Pressure Lowering Effect: -1.1%
[3]; 30 min
  Maximum Blood Pressure Lowering Effect: -5.9%
[3]; 60 min
  Maximum Blood Pressure Lowering Effect: -11.4%
[3]; 90 min
  Maximum Blood Pressure Lowering Effect: -12.9%
[3]; 120 min
  Maximum Blood Pressure Lowering Effect: -14.8%
[3]; 150 min
  Maximum Blood Pressure Lowering Effect: -16.1%
[3]; 180 min
  Maximum Blood Pressure Lowering Effect: -16.7%
[3]; 210 min
  Maximum Blood Pressure Lowering Effect: -17.4%
[3]; 240 min
  Maximum Blood Pressure Lowering Effect: -18.2%
[3]; 270 min
  Maximum Blood Pressure Lowering Effect: -17.0%
[3]; 300 min
  Maximum Blood Pressure Lowering Effect: -20.5%
[3]; 330 min
  Maximum Blood Pressure Lowering Effect: -20.7%
[3]; 360 min
  Maximum Blood Pressure Lowering Effect: -20.4%
[3]; 390 min
  Maximum Blood Pressure Lowering Effect: -20.1%
[3]; 420 min
  Maximum Blood Pressure Lowering Effect: -20.5%
[3]; 450 min
  Maximum Blood Pressure Lowering Effect: -20.5%
[3]; 480 min
  Maximum Blood Pressure Lowering Effect: -20.0%
[3]; Table 6, dogs
  time for which the maximum blood pressure lowering effect lasted after the administration: up to 8 hours
